Values quoted from earlier work, collected in US4127526A, “Novel tetradecapeptides, intermediates therefor, and compositions and methods employing said tetradecapeptides” (priority 1977, dated 1978).

What was measured:
[1] = test system: brain opiate receptor sites
[2] = injected directly into the brain of the rat

Substance: H-Tyr-Gly-Gly-Phe-Met-OH [methionine enkephalin]
- binding to partially purified brain opiate receptor sites [1]: binds stereo-specifically
- activity in bioassays for opiate activity (opiate activity): very active
- analgesic activity [2]: weak analgesic agent of short duration
